From patent US8895571B2, “Isoindolinone and pyrrolopyridinone derivatives as Akt inhibitors” (Incyte Corporation, priority 2011, dated 2014)

Columns and labels:
Full length Akt1 = molecular target: T1, Full length Akt1 (Homo sapiens, UniProt P31749); experiment: In vitro Akt kinase enzymatic assay (HTRF), Akt1; type: biochemical; conditions: 0.4 nM Akt1, substrate solution with 5 mM ATP, 25° C. 1 hr
T1 construct: Full length Akt1 (cat #P2999); purchased PerkinElmer P2999
Method in brief: (§1)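 Full-length enzyme (0.4 nM Akt1 or 0.6 nM Akt2/Akt3 in the enzyme solution) was combined with a substrate solution of 0.1 μM ULight-Crosstide plus 5 mM ATP in pH 7.8 HEPES/MgCl2/DTT/Tween20 buffer and reacted 1 hr at 25° C. The EDTA stop contained Eu anti-phospho-Crosstide; IC50 was fitted from 11-point HTRF inhibition curves.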

Full length Akt2 = molecular target: T2, Full length Akt2 (Homo sapiens, UniProt P31751); experiment: In vitro Akt kinase enzymatic assay (HTRF), Akt2; type: biochemical; conditions: 0.6 nM Akt2, substrate solution with 5 mM ATP, 25° C. 1 hr
T2 construct: Full length Akt1 (cat #P2999), Akt2 (cat #PV3184); purchased PerkinElmer PV3184
T2 sequence (P31751 whole entry): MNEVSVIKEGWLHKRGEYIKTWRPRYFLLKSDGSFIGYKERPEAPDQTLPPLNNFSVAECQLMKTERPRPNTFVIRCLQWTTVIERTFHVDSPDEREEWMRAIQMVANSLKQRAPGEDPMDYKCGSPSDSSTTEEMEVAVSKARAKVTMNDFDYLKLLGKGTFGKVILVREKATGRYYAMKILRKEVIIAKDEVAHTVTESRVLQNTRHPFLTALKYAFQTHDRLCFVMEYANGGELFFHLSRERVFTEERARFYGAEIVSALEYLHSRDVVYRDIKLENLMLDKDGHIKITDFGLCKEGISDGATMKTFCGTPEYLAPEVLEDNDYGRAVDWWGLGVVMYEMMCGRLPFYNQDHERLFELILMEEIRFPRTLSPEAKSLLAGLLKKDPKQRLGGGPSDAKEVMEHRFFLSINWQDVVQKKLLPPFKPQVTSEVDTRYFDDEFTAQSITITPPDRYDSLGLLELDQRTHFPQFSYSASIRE
Method in brief: as §1

Full length Akt3 = molecular target: T3, Full length Akt3 (Homo sapiens, UniProt Q9Y243); experiment: In vitro Akt kinase enzymatic assay (HTRF), Akt3; type: biochemical; conditions: 0.6 nM Akt3, substrate solution with 5 mM ATP, 25° C. 1 hr
T3 construct: Full length Akt1 (cat #P2999), Akt2 (cat #PV3184), Akt3 (cat #PV3185); purchased PerkinElmer PV3185
T3 sequence (Q9Y243 whole entry): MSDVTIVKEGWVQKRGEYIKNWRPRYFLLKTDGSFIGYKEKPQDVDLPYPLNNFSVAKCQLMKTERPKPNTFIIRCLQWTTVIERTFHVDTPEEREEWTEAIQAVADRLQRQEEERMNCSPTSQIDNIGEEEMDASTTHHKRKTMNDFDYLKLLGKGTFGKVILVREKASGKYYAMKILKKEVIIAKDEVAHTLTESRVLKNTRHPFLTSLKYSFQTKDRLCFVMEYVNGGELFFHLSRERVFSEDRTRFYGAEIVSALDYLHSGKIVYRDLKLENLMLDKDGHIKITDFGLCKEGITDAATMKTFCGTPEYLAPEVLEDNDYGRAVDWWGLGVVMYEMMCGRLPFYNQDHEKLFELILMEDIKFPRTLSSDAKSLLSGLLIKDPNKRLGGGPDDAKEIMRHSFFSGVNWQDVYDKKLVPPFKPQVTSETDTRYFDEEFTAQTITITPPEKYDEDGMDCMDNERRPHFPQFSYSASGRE
Method in brief: as §1

Full length PKA = molecular target: T4, Full length PKA (Homo sapiens, UniProt P17612); experiment: PKA in vitro enzymatic assay (HTRF); type: biochemical; conditions: 0.035 nM enzyme solution, substrate solution with 5 mM ATP, 25° C. 1 hr
T4 construct: Full length PKA (cat #P2912); purchased Invitrogen P2912
Method in brief: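 IC50 came from curve fitting of percent inhibition across an 11-point, 3-fold compound series, with HTRF read after EDTA quench and Tb-labelled p-S133 antibody detection. Enzyme (0.035 nM solution) and substrate (0.1 μM fluorescein-CREBtide solution containing 5 mM ATP) reacted for 1 h at 25°C. The buffer was HEPES 50 mM pH 7.8 with 10 mM MgCl2, 5 mM DTT and 0.005% Tween20.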

[1] = system: LNCaP cells (human prostate tumor cell line); experiment: Akt LNCaP proliferation assay (MTS); type: cell-based; conditions: 48 hours
Method in brief: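 Cells plated at 10,000/well in RPMI with 2% FBS overnight at 37° C., 5% CO2, then exposed to compound at 1000 nM to 0.5 nM (3-fold dilutions) for 48 hours. Viable cells measured by MTS colorimetric read-out after 2 hours; IC50 taken as concentration giving 50% inhibition of total proliferation.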

[2] = given as a bound, final concentrations 1000 nM to 0.5 nM
[3] = 2% fetal bovine serum, class symbols

T1 sequence (P31749 whole entry): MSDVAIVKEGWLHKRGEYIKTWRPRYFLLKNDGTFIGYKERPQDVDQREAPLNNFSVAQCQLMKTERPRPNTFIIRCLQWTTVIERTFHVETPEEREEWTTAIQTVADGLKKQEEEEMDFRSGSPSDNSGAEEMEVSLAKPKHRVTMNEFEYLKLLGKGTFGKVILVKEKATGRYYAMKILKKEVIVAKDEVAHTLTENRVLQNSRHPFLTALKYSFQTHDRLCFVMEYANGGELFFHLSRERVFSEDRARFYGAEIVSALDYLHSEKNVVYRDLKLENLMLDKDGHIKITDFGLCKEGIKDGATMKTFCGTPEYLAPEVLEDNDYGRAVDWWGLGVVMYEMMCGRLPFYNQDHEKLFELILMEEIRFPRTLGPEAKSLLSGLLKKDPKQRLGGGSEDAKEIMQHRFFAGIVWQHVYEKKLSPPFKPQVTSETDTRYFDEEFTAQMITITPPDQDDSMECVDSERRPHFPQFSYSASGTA

Compound	IC50 (Full length Akt1)	IC50 (Full length Akt2)	IC50 (Full length Akt3)	IC50 (Full length PKA)	IC50 [1, 2]	IC50 [1, 3]
Cn1ncc(Cl)c1-c1ccc2c(c1)CN([C@H](CN)Cc1cccc(-c3cccnc3)c1)C2=O [Example 73, 2-[(1S)-2-amino-1-(3-pyridin-3-ylbenzyl)ethyl]-5-(4-chloro-1-methyl-1H-pyrazol-5-yl)isoindolin-1-one]	500 to 5000 nM	> 5000 nM	500 to 5000 nM	> 5000 nM	> 1000 nM	
Cn1ncc(Cl)c1-c1ccc2c(c1)CN([C@H](CN)Cc1cccc(-c3cncnc3)c1)C2=O [Example 74, 2-[(1S)-2-amino-1-(3-pyrimidin-5-ylbenzyl)ethyl]-5-(4-chloro-1-methyl-1H-pyrazol-5-yl)isoindolin-1-one]	500 to 5000 nM	> 5000 nM	> 5000 nM	> 5000 nM	> 1000 nM	
Cn1nccc1-c1ccc2c(c1)CN([C@H](CN)Cc1cccc(C#N)c1)C2=O [Example 75, 3-{(2S)-3-amino-2-[5-(1-methyl-1H-pyrazol-5-yl)-1-oxo-1,3-dihydro-2H-isoindol-2-yl]propyl}benzonitrile]	500 to 5000 nM	< 500 nM	500 to 5000 nM	> 5000 nM		< 500 nM
Cn1nccc1-c1ccc2c(c1)CN([C@H](CN)Cc1csc3ccccc13)C2=O [Example 76, 2-[(1S)-2-amino-1-(1-benzothien-3-ylmethyl)ethyl]-5-(1-methyl-1H-pyrazol-5-yl)isoindolin-1-one]	< 500 nM	< 500 nM	< 500 nM	> 5000 nM		< 500 nM
Cn1nccc1-c1ccc2c(c1)CN([C@H](CN)Cc1cccnc1)C2=O [Example 78, 2-[(1S)-2-amino-1-(pyridin-3-ylmethyl)ethyl]-5-(1-methyl-1H-pyrazol-5-yl)isoindolin-1-one]	< 500 nM	< 500 nM	500 to 5000 nM	> 5000 nM		< 500 nM
Cn1nccc1-c1ccc2c(c1)CN([C@H](CN)Cc1ccccn1)C2=O [Example 79, 2-[(1S)-2-amino-1-(pyridin-2-ylmethyl)ethyl]-5-(1-methyl-1H-pyrazol-5-yl)isoindolin-1-one]	< 500 nM	< 500 nM	500 to 5000 nM	> 5000 nM		500 to 5000 nM
Cn1nccc1-c1ccc2c(c1)CN([C@H](CN)Cc1cccs1)C2=O [Example 80, 2-[(1S)-2-amino-1-(2-thienylmethyl)ethyl]-5-(1-methyl-1H-pyrazol-5-yl)isoindolin-1-one]	< 500 nM	< 500 nM	< 500 nM	500 to 5000 nM		< 500 nM
Cn1nccc1-c1ccc2c(c1)CN([C@H](CN)Cc1ccsc1)C2=O [Example 81, 2-[(1S)-2-amino-1-(3-thienylmethyl)ethyl]-5-(1-methyl-1H-pyrazol-5-yl)isoindolin-1-one]	< 500 nM	< 500 nM	< 500 nM	500 to 5000 nM		< 500 nM
Cn1nccc1-c1ccc2c(c1)CN([C@H](CN)Cc1cccc(-c3ccncc3)c1)C2=O [Example 85, 2-[(1S)-2-amino-1-(3-pyridin-4-ylbenzyl)ethyl]-5-(1-methyl-1H-pyrazol-5-yl)isoindolin-1-one]	> 5000 nM	> 5000 nM	> 5000 nM	> 5000 nM	> 1000 nM	
Cn1nccc1-c1ccc2c(c1)CN([C@H](CN)Cc1cccc(-c3cccnc3)c1)C2=O [Example 86, 2-[(1S)-2-amino-1-(3-pyridin-3-ylbenzyl)ethyl]-5-(1-methyl-1H-pyrazol-5-yl)isoindolin-1-one]	500 to 5000 nM	> 5000 nM	> 5000 nM	> 5000 nM	> 1000 nM	
Cn1nccc1-c1ccc2c(c1)CN([C@H](CN)Cc1cccc(-c3cncnc3)c1)C2=O [Example 87, 2-[(1S)-2-amino-1-(3-pyrimidin-5-ylbenzyl)ethyl]-5-(1-methyl-1H-pyrazol-5-yl)isoindolin-1-one]	500 to 5000 nM	> 5000 nM	> 5000 nM	> 5000 nM	> 1000 nM	
C#Cc1cccc(C[C@@H](CN)N2Cc3cc(-c4ccnn4C)ccc3C2=O)c1 [Example 88, 2-[(1S)-2-amino-1-(3-ethynylbenzyl)ethyl]-5-(1-methyl-1H-pyrazol-5-yl)isoindolin-1-one]	< 500 nM	< 500 nM	< 500 nM	500 to 5000 nM		< 500 nM
C#Cc1cccc(C[C@@H](CN)N2Cc3cc(-c4c(Cl)cnn4C)ccc3C2=O)c1 [Example 89, 2-[(1S)-2-amino-1-(3-ethynylbenzyl)ethyl]-5-(4-chloro-1-methyl-1H-pyrazol-5-yl)isoindolin-1-one]	< 500 nM	< 500 nM	< 500 nM	500 to 5000 nM		< 500 nM
Cn1ncc(Cl)c1-c1cnc2c(c1)CN([C@H](CN)Cc1cccc(F)c1)C2=O [Example 90, 6-[(1S)-2-amino-1-(3-fluorobenzyl)ethyl]-3-(4-chloro-1-methyl-1H-pyrazol-5-yl)-5,6-dihydro-7H-pyrrolo[3,4-b]pyridin-7-one]	< 500 nM	< 500 nM	< 500 nM	> 5000 nM		< 500 nM
Cn1ncc(Br)c1-c1cnc2c(c1)CN([C@H](CN)Cc1cccc(F)c1)C2=O [Example 91, 6-[(1S)-2-amino-1-(3-fluorobenzyl)ethyl]-3-(4-bromo-1-methyl-1H-pyrazol-5-yl)-5,6-dihydro-7H-pyrrolo[3,4-b]pyridin-7-one]	< 500 nM	< 500 nM	< 500 nM	> 5000 nM		< 500 nM
Cn1ncc(Cl)c1-c1cc2c(cn1)C(=O)N([C@H](CN)Cc1cccc(F)c1)C2 [Example 92, 2-[(1S)-2-amino-1-(3-fluorobenzyl)ethyl]-6-(4-chloro-1-methyl-1H-pyrazol-5-yl)-1,2-dihydro-3H-pyrrolo[3,4-c]pyridin-3-one]	< 500 nM	< 500 nM	< 500 nM	500 to 5000 nM		< 500 nM
Cn1nccc1-c1cc2c(cn1)C(=O)N([C@H](CN)Cc1cccc(F)c1)C2 [Example 93, 2-[(1S)-2-amino-1-(3-fluorobenzyl)ethyl]-6-(1-methyl-1H-pyrazol-5-yl)-1,2-dihydro-3H-pyrrolo[3,4-c]pyridin-3-one]	< 500 nM	< 500 nM	< 500 nM	500 to 5000 nM		< 500 nM
Cc1cnn(C)c1-c1cc2c(cn1)C(=O)N([C@H](CN)Cc1cccc(F)c1)C2 [Example 94, 2-[(1S)-2-amino-1-(3-fluorobenzyl)ethyl]-6-(4-methyl-1-methyl-1H-pyrazol-5-yl)-1,2-dihydro-3H-pyrrolo[3,4-c]pyridin-3-one]	< 500 nM	< 500 nM	< 500 nM	500 to 5000 nM		< 500 nM
CC(C)OCc1cnn(C)c1-c1cc2c(cn1)C(=O)N([C@H](CN)Cc1cccc(F)c1)C2 [Example 95, 2-[(1S)-2-amino-1-(3-fluorobenzyl)ethyl]-6-[4-(2-propoxymethyl)-1-methyl-1H-pyrazol-5-yl]-1,2-dihydro-3H-pyrrolo[3,4-c]pyridin-3-one]	< 500 nM	< 500 nM	< 500 nM	> 5000 nM		< 500 nM
